How the values were obtained:
EAE = conditions: refs [6,8], [31,32]; cited from earlier work
CD4+Foxp3+ T cells = assay: Mouse DC / CD4+ T cell co-culture, Foxp3+ TREG induction; type: cell-based
Experimental: (§1) FIG. 5, panels A-C. Graphs and plots showing vitamin D augments the ability of PSA to promote TREGS. (FIG. 5, panel A) Mouse BMDCs were stimulated with PSA (or PBS), and Cyp27b1 transcript levels were measured by qRT-PCR. PSA induces the expression of Cyp27b1 from WT, but not TLR2−/− DCs. (FIG. 5, panel B) Mouse DCs were treated with PSA, washed and co-cultured with naïve CD4+ T cells. After 4 days, PSA increased Foxp3+TREGS (see % in red box). The vitamin D metabolite 25D augmented PSA-induced TREGS. (FIG. 5, panel C) Human monocytes were treated with PSA or vehicle, washed and co-cultured with CD4+ T cells from PBMCs of the same donor. The MR for Foxp3 among CD4+CD25+ T cells is shown, with or without TGFβ.
(§2) Next tested was whether vitamin D enhanced the ability of PSA to induce Foxp3+ TREG cells in vitro. BMDCs treated with PSA or PBS, with or without 25D, were incubated with CD4+ T cells from the spleens of mice. […] The Hewison group has described […] expression of CYP27B1 in human DCs, and has shown the effects of vitamin D on human TREG development in vitro [11]. However, the ability of PSA to induce human Foxp3+ TREG cells has not been reported. […] These studies further link PSA-induced TREGS to the vitamin D pathway. Thus, PSA and vitamin D may promote human TREG cells.

[1] = tested on: Foxp3 among CD4+CD25+ T cells; assay: Human monocyte / CD4+ T cell co-culture, Foxp3 expression; type: cell-based
Experimental: as §1, §2

VDR = VDR mRNA levels in colonic tissue of germ-free mice; conditions: oral gavage of GF animals
[2] = tested on: experimental autoimmune encephalomyelitis (EAE); assay: EAE clinical scores in mice on normal or vitamin D-deficient diet; type: in vivo, C57BL/6 mice
Experimental: FIG. 2, panels A-D. Graphs showing germ-free (GF) mice are attenuated in EAE. Female C57B1/6 mice were immunized subcutaneously (s.c.) with 150 μg MOG35-55 peptide with 200 μg of Complete Freund's adjuvant (CFA). On the same day and 2 days later, mice were injected intraperitoneally (i.p.) with 150 ng/mouse of pertussis toxin. (FIG. 2, panel A) Clinical EAE scores of SPF (dark symbols) and GF (light symbols). Data are representative of three independent experiments. (FIG. 2, panel B) Proportions of SPF and GF mice that develop various degrees of EAE, as assessed by clinical score. Results are combined from 4 experiments, with a total of 20 for SPF and 22 for GF mice. (FIG. 2, panel C) IFNγ and IL-17A cytokine ELISA analysis of cells harvested from draining lymph nodes of SPF and GF mice 8 days after immunization with MOG/CFA and cultured for 3 days in vitro with MOG peptide. (FIG. 2, panel D) CD4+CD25+Foxp3+ T cells at day 15 post-immunization. Cells were cultured for 3 days with MOG peptide, and analyzed by flow cytometry. Data from Lee et al., PANS, 2011 [2].
FIG. 6. […]
To asses EAE in mice, mice can be evaluated daily for signs of disease. The clinical course of the EAE can be scored according to the severity as follows: 0=no obvious signs of disease, 0.5=partial tail weakness (cannot raise tail against gravity), 1=limp tail, 1.5=limp tail and hindlimb weakness, 2=limp tail and impairment in righting reflex, 2.5=limp tail and hindlimb paresis (as determined by gait abnormality), 3=bilateral hindlimb paralysis, 3.5=bilateral hindlimb paralysis and forelimb paresis (as determined by in ability of the mouse to strongly grasp cage bars with the fore paws when placed on top), 4=moribund, 5=dead. […] Reduced symptoms of EAE can be evaluated by comparing clinical scores.
PSA protects mice from EAE [8]; however, it is unknown whether PSA protection requires vitamin D. To address whether PSA may serve as a viable therapy for vitamin D deficient MS patients, mice on vitamin D sufficient and deficient diets were raised, EAE was induced, and PSA's protective effects were assessed.

colitis = conditions: refs [4,5,22]; cited from earlier work
Cyp27b1 [3] = assay: Colonic Cyp27b1 mRNA by qRT-PCR in mice; conditions: mice on vitamin D deficient diet for 6 weeks, fed PSA for 2 weeks
Cyp27b1 [4] = assay: Cyp27b1 transcript levels in PSA-stimulated BMDCs (qRT-PCR); type: cell-based, Mouse
Experimental: as §1
As described, the ability of PSA to protect against colitis & EAE in mice involves Foxp3+ TREGS [8,48]. The inventors recognize that vitamin D may play a pivotal role in microbial-induced TREGS, given the ability of 1,25D to promote TREG generation and the novel findings that PSA induces the vitamin D-system. First, the cell type that is responsible for PSA-dependent conversion of 25D to active 1,25D was made. The inventors have shown that PSA activates DCs, which prime TREG responses.

C=C1/C(=C\C=C2/CCC[C@]3(C)[C@@H]([C@H](C)CCCC(C)(C)O)CC[C@@H]23)C[C@@H](O)C[C@@H]1O [1,25D, 1,25-dihydroxyvitamin D3, reference compound]
EAE disease (literature) (EAE): protected from disease

C=C1CC[C@H](O)C/C1=C/C=C1\CCC[C@]2(C)[C@@H]([C@H](C)CCCC(C)(C)O)CC[C@@H]12 [25D, 25-hydroxyvitamin-D3, reference compound]
PSA-induced CD4+Foxp3+ T cells, effect of co-treatment (CD4+Foxp3+ T cells; BMDCs treated with PSA with 25D): enhanced by co-treatment with 25D

TGFβ [reference compound]
PSA-mediated TREG cells, effect of added TGFβ ([1]; with TGFβ): does not further enhance PSA-mediated TREG cells

polysaccharide A [PSA]
expression of VDR in the colon (VDR): increases expression of VDR
proportions of CD4+Foxp3+ T cells in culture (CD4+Foxp3+ T cells; BMDCs treated with PSA, co-cultured with CD4+ T cells, 4 days): increases the proportions of CD4+Foxp3+ T cells in culture
interaction of PSA with vitamin D in EAE protection ([2]; PSA groups on sufficient versus deficient diet): synergizes with vitamin D during protection from EAE
EAE clinical score at the peak of disease ([2]; day 14, vitamin D sufficient and deficient diets, PSA 100 μg/dose orally 3×/week): protected from EAE
EAE clinical score during the remission phase ([2]; day 20-35, vitamin D sufficient diet versus deficient, PSA 100 μg/dose orally 3×/week): attenuated in disease during the remission phase if they were fed vitamin D sufficient diets
colitis (literature) (colitis): prevents and treats colitis in mice
colonic Cyp27b1 expression (Cyp27b1 [3]): induces increased colonic Cyp27b1
EAE disease (literature) (EAE): ameliorates and treats EAE
Cyp27b1 expression from BMDCs (Cyp27b1 [4]; TLR2−/− DCs): did not respond to PSA
Cyp27b1 expression from BMDCs (Cyp27b1 [4]; WT bone marrow-derived dendritic cells): induces Cyp27b1 expression
Foxp3 expression in human TREGS ([1]; monocytes treated with PSA, co-cultured with CD4+ T cells from PBMCs of the same donor): promotes Foxp3 expression in human TREGS in vitro
